pKd: −log10 of the molar value.
Legend:
Settings in all cases: Table 35
RIP1 = RIP1 (Homo sapiens (Human), UniProt Q13546); test: KINOMEscan binding assay, RIP1
MLKL (full length) = MLKL (full length) (Homo sapiens (Human), UniProt Q8NB16); test: KINOMEscan binding assay, MLKL (full length)
Protocol: (§1) Kinase assays. For most assays, kinase-tagged T7 phage strains were grown in parallel in 24-well blocks in an E. coli host derived from the BL21 strain. E. coli were grown to log-phase and infected with T7 phage from a frozen stock (multiplicity of infection=0.4) and incubated with shaking at 32° C. until lysis (90-150 minutes).
(§2) The Hill Slope was set to −1.

RIP3 = RIP3 (Homo sapiens (Human), UniProt Q9Y572); test: KINOMEscan binding assay, RIP3
RIP3, sequence (Q9Y572 whole entry): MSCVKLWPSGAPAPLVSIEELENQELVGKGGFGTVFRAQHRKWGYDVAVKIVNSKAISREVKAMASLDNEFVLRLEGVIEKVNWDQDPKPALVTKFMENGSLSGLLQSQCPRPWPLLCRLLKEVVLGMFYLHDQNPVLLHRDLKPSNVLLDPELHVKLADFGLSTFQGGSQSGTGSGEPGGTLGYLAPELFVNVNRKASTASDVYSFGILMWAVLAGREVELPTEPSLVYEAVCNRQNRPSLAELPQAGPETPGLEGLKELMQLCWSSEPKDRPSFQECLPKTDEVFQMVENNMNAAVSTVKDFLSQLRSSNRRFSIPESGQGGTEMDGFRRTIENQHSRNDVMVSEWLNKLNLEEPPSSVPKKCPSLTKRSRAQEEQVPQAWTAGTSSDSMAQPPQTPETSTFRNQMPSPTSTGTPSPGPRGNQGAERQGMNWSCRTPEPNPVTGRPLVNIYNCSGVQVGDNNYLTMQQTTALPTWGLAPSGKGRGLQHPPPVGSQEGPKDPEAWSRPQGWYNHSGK
Protocol: as §1, §2

MLKL (full length), sequence (Q8NB16 whole entry): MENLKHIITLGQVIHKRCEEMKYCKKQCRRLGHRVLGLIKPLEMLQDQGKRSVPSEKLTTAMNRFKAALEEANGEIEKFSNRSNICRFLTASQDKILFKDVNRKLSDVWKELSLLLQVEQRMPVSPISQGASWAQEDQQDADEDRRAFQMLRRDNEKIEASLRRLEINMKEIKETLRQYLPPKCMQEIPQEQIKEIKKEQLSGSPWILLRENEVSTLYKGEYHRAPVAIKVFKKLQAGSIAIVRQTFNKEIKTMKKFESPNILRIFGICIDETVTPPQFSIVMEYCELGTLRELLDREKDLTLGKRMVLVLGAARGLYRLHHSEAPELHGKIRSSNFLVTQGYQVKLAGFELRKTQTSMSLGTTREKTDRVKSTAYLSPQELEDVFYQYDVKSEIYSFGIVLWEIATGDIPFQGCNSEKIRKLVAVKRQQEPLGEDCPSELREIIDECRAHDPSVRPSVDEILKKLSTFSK
RIP1, sequence (Q13546 whole entry): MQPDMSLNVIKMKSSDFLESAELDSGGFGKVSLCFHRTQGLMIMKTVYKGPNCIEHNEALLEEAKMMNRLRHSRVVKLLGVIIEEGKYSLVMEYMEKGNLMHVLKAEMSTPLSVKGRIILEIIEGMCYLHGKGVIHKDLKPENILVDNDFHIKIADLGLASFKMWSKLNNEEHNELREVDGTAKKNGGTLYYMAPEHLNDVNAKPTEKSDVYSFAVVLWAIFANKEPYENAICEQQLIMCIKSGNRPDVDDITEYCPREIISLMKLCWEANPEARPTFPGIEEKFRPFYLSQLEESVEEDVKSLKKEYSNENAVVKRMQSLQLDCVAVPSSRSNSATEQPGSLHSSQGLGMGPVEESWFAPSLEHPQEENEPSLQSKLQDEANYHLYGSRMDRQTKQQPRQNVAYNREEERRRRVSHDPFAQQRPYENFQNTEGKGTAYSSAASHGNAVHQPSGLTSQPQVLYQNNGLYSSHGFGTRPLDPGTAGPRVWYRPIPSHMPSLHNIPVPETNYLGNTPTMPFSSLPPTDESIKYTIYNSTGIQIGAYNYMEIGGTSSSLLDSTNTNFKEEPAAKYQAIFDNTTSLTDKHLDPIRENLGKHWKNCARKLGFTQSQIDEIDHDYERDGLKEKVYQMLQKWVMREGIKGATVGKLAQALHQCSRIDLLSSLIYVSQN

Row | Compound | pKd (RIP1) | pKd (MLKL (full length)) | pKd (RIP3)
1 | CCS(=O)(=O)Nc1ccc(-c2n[nH]c(Nc3cnc(OC)cn3)c2C(N)=O)cc1 [Compound 90, 3-(4-(ethylsulfonamido)phenyl)-5-((5-methoxypyrazin-2-yl)amino)-1H-pyrazole-4-carboxamide] | < 4.52 | > 8.00 | < 4.52
2 | CCS(=O)(=O)Nc1ccc(-c2n[nH]c(Nc3ccc(C(F)(F)F)cn3)c2C(N)=O)cc1 [Compound 93, 3-(4-(ethylsulfonamido)phenyl)-5-((5-(trifluoromethyl)pyridin-2-yl)amino)-1H-pyrazole-4-carboxamide] | < 4.52 | > 8.00 | < 4.52
3 | CCS(=O)(=O)Nc1ccc(-c2n[nH]c(Nc3cncc(OC)n3)c2C(N)=O)cc1 [Compound 99, 3-(4-(ethylsulfonamido)phenyl)-5-((6-methoxypyrazin-2-yl)amino)-1H-pyrazole-4-carboxamide] | < 4.52 | > 8.00 | < 4.52
4 | CCS(=O)(=O)Nc1ccc(-c2n[nH]c(Nc3cnn(C)c3)c2C(N)=O)cc1 [Compound 100, 3-(4-(ethylsulfonamido)phenyl)-5-((1-methyl-1H-pyrazol-4-yl)amino)-1H-pyrazole-4-carboxamide] | < 4.52 | > 8.00 | < 4.52
5 | CCS(=O)(=O)Nc1ccc(-c2n[nH]c(Nc3cnc(C)cn3)c2C(N)=O)cc1 [Compound 101, 3-(4-(ethylsulfonamido)phenyl)-5-((5-methylpyrazin-2-yl)amino)-1H-pyrazole-4-carboxamide] | < 4.52 | > 8.00 | < 4.52
6 | CCS(=O)(=O)Nc1ccc(-c2n[nH]c(Nc3ccc(C#N)cc3)c2C(N)=O)cc1 [Compound 102, 5-((4-cyanophenyl)amino)-3-(4-(ethylsulfonamido)phenyl)-1H-pyrazole-4-carboxamide] | < 4.52 | > 8.00 | < 4.52
7 | CCS(=O)(=O)Nc1ccc(-c2n[nH]c(Nc3ccnc(C(F)(F)F)c3)c2C(N)=O)cc1 [Compound 104, 3-(4-(ethylsulfonamido)phenyl)-5-((2-(trifluoromethyl)pyridin-4-yl)amino)-1H-pyrazole-4-carboxamide] | < 4.52 | > 8.00 | < 4.52
8 | CCOc1cc(Nc2[nH]nc(-c3ccc(NS(=O)(=O)CC)cc3)c2C(N)=O)ccn1 [Compound 105, 5-((2-ethoxypyridin-4-yl)amino)-3-(4-(ethylsulfonamido)phenyl)-1H-pyrazole-4-carboxamide] | < 4.52 | > 8.00 | < 4.52
9 | CCS(=O)(=O)Nc1ccc(-c2n[nH]c(Nc3ccnc(OCC(F)F)c3)c2C(N)=O)cc1 [Compound 106, 5-((2-(2,2-difluoroethoxy)pyridin-4-yl)amino)-3-(4-(ethylsulfonamido)phenyl)-1H-pyrazole-4-carboxamide] | < 4.52 | > 8.00 | < 4.52
10 | CCS(=O)(=O)Nc1ccc(-c2n[nH]c(Nc3cnccn3)c2C(N)=O)cc1 [Compound 108, 3-(4-(ethylsulfonamido)phenyl)-5-(pyrazin-2-ylamino)-1H-pyrazole-4-carboxamide] | < 4.52 | > 8.00 | < 4.52
11 | COCCOc1cc(Nc2[nH]nc(-c3ccc(NS(=O)(=O)CC#N)cc3)c2C(N)=O)ccn1 [Compound 110, 3-(4-((cyanomethyl)sulfonamido)phenyl)-5-((2-(2-methoxyethoxy)pyridin-4-yl)amino)-1H-pyrazole-4-carboxamide] | < 4.52 | > 8.00 | < 4.52
12 | CCS(=O)(=O)Nc1ccc(-c2n[nH]c(Nc3cc(C)nc(C)c3)c2C(N)=O)cc1 [Compound 112, 5-((2,6-dimethylpyridin-4-yl)amino)-3-(4-(ethylsulfonamido)phenyl)-1H-pyrazole-4-carboxamide] | < 4.52 | > 8.00 | < 4.52
13 | CCS(=O)(=O)Nc1ccc(-c2n[nH]c(Nc3ccnc(C)c3)c2C(N)=O)cc1 [Compound 113, 3-(4-(ethylsulfonamido)phenyl)-5-((2-methylpyridin-4-yl)amino)-1H-pyrazole-4-carboxamide] | < 4.52 | > 8.00 | < 4.52
14 | CCS(=O)(=O)Nc1ccc(-c2n[nH]c(Nc3ccnc(OC)n3)c2C(N)=O)cc1 [Compound 123, 3-(4-(ethylsulfonamido)phenyl)-5-((2-methoxypyrimidin-4-yl)amino)-1H-pyrazole-4-carboxamide] | < 4.52 | > 8.00 | < 4.52
15 | CCS(=O)(=O)Nc1ccc(-c2n[nH]c(Nc3ccccc3)c2C(N)=O)cc1 [Compound 124, 3-(4-(ethylsulfonamido)phenyl)-5-(phenylamino)-1H-pyrazole-4-carboxamide] | < 4.52 | > 8.00 | < 4.52
16 | CCS(=O)(=O)Nc1ccc(-c2n[nH]c(Nc3cccc(C(F)(F)F)n3)c2C(N)=O)cc1 [Compound 126, 3-(4-(ethylsulfonamido)phenyl)-5-((6-(trifluoromethyl)pyridin-2-yl)amino)-1H-pyrazole-4-carboxamide] | < 4.52 | > 8.00 | < 4.52
17 | NC(=O)c1c(-c2ccc(NS(=O)(=O)CC(F)(F)F)cc2)n[nH]c1Nc1cnccn1 [Compound 137, 5-(pyrazin-2-ylamino)-3-(4-((2,2,2-trifluoroethyl)sulfonamido)phenyl)-1H-pyrazole-4-carboxamide] | < 4.52 | > 8.00 | < 4.52
18 | NC(=O)c1c(-c2ccc(NS(=O)(=O)CC(F)(F)F)cc2OCc2ccc(F)cc2)n[nH]c1Nc1cnccn1 [Compound 139, 3-(2-((4-fluorobenzyl)oxy)-4-((2,2,2-trifluoroethyl)sulfonamido)phenyl)-5-(pyrazin-2-ylamino)-1H-pyrazole-4-carboxamide] | < 4.52 | > 8.00 | < 4.52
19 | NC(=O)c1c(-c2ccc(NS(=O)(=O)CC(F)(F)F)cc2OCc2ccc(F)cc2)n[nH]c1Nc1cccc(C(F)(F)F)n1 [Compound 140, 3-(2-((4-fluorobenzyl)oxy)-4-((2,2,2-trifluoroethyl)sulfonamido)phenyl)-5-((6-(trifluoromethyl)pyridine-2-yl)amino)-1H-pyrazole-4-carboxamide] | < 4.52 | > 8.00 | < 4.52
20 | COc1cnc(Nc2[nH]nc(-c3ccc(NS(=O)(=O)CC(F)(F)F)c(OCc4ccc(F)cc4)c3)c2C(N)=O)cn1 [Compound 143, 3-(3-((4-fluorobenzyl)oxy)-4-((2,2,2-trifluoroethyl)sulfonamido)phenyl)-5-((5-methoxypyrazin-2-yl)amino)-1H-pyrazole-4-carboxamide] | < 4.52 | > 8.00 | < 4.52
21 | NC(=O)c1c(-c2ccc(NS(=O)(=O)CC(F)(F)F)c(OC3(c4ccc(F)cc4)CC3)c2)n[nH]c1Nc1cnccn1 [Compound 144, 3-(3-(1-(4-fluorophenyl)cyclopropoxy)-4-((2,2,2-trifluoroethyl)sulfonamido)phenyl)-5-(pyrazin-2-ylamino)-1H-pyrazole-4-carboxamide] | < 4.52 | > 8.00 | < 4.52
22 | NC(=O)c1c(-c2ccc(NS(=O)(=O)C(F)F)cc2)n[nH]c1Nc1ccc(C(F)(F)F)cn1 [Compound 145, 3-(4-((difluoromethyl)sulfonamido)phenyl)-5-((5-(trifluoromethyl)pyridine-2-yl)amino)-1H-pyrazole-4-carboxamide] | < 4.52 | > 8.00 | < 4.52
23 | Cc1cnc(Nc2[nH]nc(-c3ccc(NS(=O)(=O)CC(F)(F)F)c(OCc4ccc(Cl)c(F)c4)c3)c2C(N)=O)cn1 [Compound 146, 3-(3-((4-chloro-3-fluorobenzyl)oxy)-4-((2,2,2-trifluoroethyl)sulfonamido)phenyl)-5-((5-methylpyrazin-2-yl)amino)-1H-pyrazole-4-carboxamide] | < 4.52 | > 8.00 | < 4.52
24 | NC(=O)c1c(-c2ccc(NS(=O)(=O)C(F)F)c(Oc3ccc(F)cc3)c2)n[nH]c1Nc1cccc(C(F)(F)F)n1 [Compound 147, 3-(4-((difluoromethyl)sulfonamido)-3-(4-fluorophenoxy)phenyl)-5-((6-(trifluoromethyl)pyridine-2-yl)amino)-1H-pyrazole-4-carboxamide] | < 4.52 | > 8.00 | < 4.52
25 | NC(=O)c1c(-c2ccc(NS(=O)(=O)CC(F)(F)F)c(Oc3ccc(F)cc3)c2)n[nH]c1Nc1cccc(C(F)(F)F)n1 [Compound 148, 3-(3-(4-fluorophenoxy)-4-((2,2,2-trifluoroethyl)sulfonamido)phenyl)-5-((6-(trifluoromethyl)pyridine-2-yl)amino)-1H-pyrazole-4-carboxamide] | < 4.52 | > 8.00 | < 4.52
26 | CCS(=O)(=O)Nc1ccc(-c2n[nH]c(Nc3cccc(C(F)(F)F)n3)c2C(N)=O)cc1Oc1ccc(F)cc1 [Compound 149, 3-(4-(ethylsulfonamido)-3-(4-fluorophenoxy)phenyl)-5-((6-(trifluoromethyl)pyridine-2-yl)amino)-1H-pyrazole-4-carboxamide] | < 4.52 | > 8.00 | < 4.52
27 | NC(=O)c1c(-c2ccc(NS(=O)(=O)C(F)F)c(OCc3ccc(F)c(F)c3)c2)n[nH]c1Nc1cccc(C(F)(F)F)n1 [Compound 151, 3-(3-((3,4-difluorobenzyl)oxy)-4-((difluoromethyl)sulfonamido)phenyl)-5-((6-(trifluoromethyl)pyridine-2-yl)amino)-1H-pyrazole-4-carboxamide] | < 4.52 | > 8.00 | < 4.52
28 | CCS(=O)(=O)Nc1ccc(-c2n[nH]c(Nc3cnccn3)c2C(N)=O)cc1OC1(c2ccccc2)CC1 [Compound 152, 3-(4-(ethylsulfonamido)-3-(1-phenylcyclopropoxy)phenyl)-5-(pyrazin-2-ylamino)-1H-pyrazole-4-carboxamide] | < 4.52 | > 8.00 | < 4.52

— patent US20250074891A1 (Anaxis Pharma Pty Ltd., priority 2021, published 2025)
